{
  "source": "patent US11679123B2",
  "about": "“N-acylated hyaluronic acid for hyperuricemia and gouty arthritis” (Queen's University at Kingston, priority 2018, dated 2023)",
  "key": {"[1]": {"test_system": "inflammatory cell infiltration in the synovium", "assay": "Histopathological assessment of ankle joint synovium (H&E) in MSU crystal-injected rats", "type": "in vivo, Wistar rats", "description": "In one study, a histopathological assessment was conducted of synovium in ankle joints of rats after H&E staining. The right ankles of […] were excised and fixed in 4% paraformaldehyde, and subsequently decalcified using 10% ethylenediaminetetraacetic acid. They were then dehydrated via processing in alcohol/xylene mixtures with different proportions and concentrations. The histological sections were stained with hematoxylin and eosin. The histopathological changes of the joint synovium were assessed for the degree of inflammatory cell infiltrate, by an experienced histopathologist. Microscopy at magnifications of 40×, 100×, 200× and 400× were investigated for typical areas for each of the five groups.\nThe right ankles of rats were collected and fixed in 4% paraformaldehyde, and subsequently decalcified using 10% ethylenediaminetetraacetic acid. They were then dehydrated by processing in alcohol/xylene mixtures with different proportions and concentrations. The histological sections were later stained with hematoxylin and eosin for observation under an optical microscope (200×). The histopathological changes were analyzed with regard to deformaties of the joint synovium and infiltration by inflammatory cells into the ankle."}, "[2]": {"test_system": "hyperuricemic mice", "assay": "Serum UA in OXO- and yeast extract-induced hyperuricemic mice", "type": "in vivo, Balb/C mice", "details": "BHA (10 μg and 50 μg intraperitoneal), P<0.05", "description": "Male Balb/C mice (n=50, 8 weeks: 18-22 g), purchased from Yisi Experimental Animal Technology Company Ltd, Jilin, China (SCXK (Ji)-2016-0003). These mice were housed in plastic cages and maintained on a 12-h light/12-h dark cycle (lights on 7:00-19:00 h) under standard laboratory conditions of 55% relative humidity and 23±1° C. They were given standard feed and tap water ad libitum. All experimental procedures were approved by the Animal Ethics Committee of Jilin University (Reference NO. 201605).\nDue to the presence of uricase in mice, a hyperuricemic mouse model was established by using uricase inhibitor and large amounts of purine. Mice were randomly divided into five groups (n=10), including the control group (NC), model group (MC), 20 mg/kg of AL (Shimao Tianjie Pharmaceutical Co. Ltd, Jiangsu, China) group, 10 μg BHA group (10BHA) and 50 μg BHA group (50BHA). Oral administration of AL and intraperitoneal injection of BHA were administered according to the required dose, and all mice were gavage fed 20 g/kg yeast extract powder 12 h prior to the administration of AL and BHA except for NC mice for 8 days. […]\nThe serum UA concentrations and XO levels in the serum and liver were determined with a standard diagnostic kit (MAK077, MAK078 Sigma, USA) according to the manufacturer's instructions."}, "[3]": {"test_system": "factors related to oxidative stress", "assay": "Factors related to oxidative stress in serum and liver of hyperuricemia mice (ELISA)", "type": "in vivo, Balb/C mice", "details": "for Liver CAT / Liver GSH-PX / Liver MDA / Liver ROS / Liver SOD / Serum CAT / Serum GSH-PX / Serum MDA / Serum ROS / Serum SOD: hyperuricemia mice, mean ± S.D., n=10", "description": "Due to the presence of uricase in mice, a hyperuricemic mouse model was established by using uricase inhibitor and large amounts of purine. Mice were randomly divided into five groups (n=10), including the control group (NC), model group (MC), 20 mg/kg of AL (Shimao Tianjie Pharmaceutical Co. Ltd, Jiangsu, China) group, 10 μg BHA group (10BHA) and 50 μg BHA group (50BHA). Oral administration of AL and intraperitoneal injection of BHA were administered according to the required dose, and all mice were gavage fed 20 g/kg yeast extract powder 12 h prior to the administration of AL and BHA except for NC mice for 8 days. From the 6th to 8th day, 1-h prior to AL and BHA administration, 300 mg/kg of OXO (Sigma, USA) was intraperitoneally injected to all of the mice except those in the control group. At 1 h after the final drug administration, blood was sampled from caudal veins of the mice, serum was separated and their livers were quickly collected (FIG. 3A, E). All samples were stored at −80° C. until assay measurements were performed.\nThe levels of reactive oxygen species (ROS, 43355), malondialdehyde (MDA, 43124) glutathione peroxidase (GSH-Px, 43390), superoxide dismutase (SOD, 43125), catalase (CAT, 43356), creatinine (Cr, 43353) and blood urea nitrogen (BUN, 43352) in the serum and livers of mice were determined using ELISA Kits (Yuanye Bio-Technology Co. Ltd, Shanghai, China) according to the manufacturer's instructions."}, "[4]": {"details": "10 μg BHA intraperitoneal (10BHA)"}, "[5]": {"details": "50 μg BHA intraperitoneal (50BHA)"}},
  "data": [
    {"substance": "N-butyrylated HA [BHA]", "values": [
      {"measurement": "pathological changes (inflammatory cell infiltration) in synovium", "setting": "[1]; 10 μg of BHA, MSU crystal-injected rats, H&E", "result": "partially prevented the pathological changes"},
      {"measurement": "attenuation of inflammatory cell infiltration in synovium", "setting": "[1]; higher dose BHA (50BHA, 50 μg)", "result": "not as effective as the 10BHA dose"},
      {"measurement": "serum UA levels", "setting": "[2]", "result": "significantly suppressed serum UA levels"},
      {"measurement": "decrease of ROS levels in the liver", "setting": "[3]; 10 μg BHA, P<0.01", "result": 8.04, "unit": "%"},
      {"measurement": "decrease of ROS levels in the serum", "setting": "[3]; 10 μg BHA, P<0.01", "result": 14.87, "unit": "%"},
      {"measurement": "improvement of liver SOD", "setting": "[3]; 10 μg BHA, P<0.05", "result": 12.77, "unit": "%"},
      {"measurement": "decrease of ROS levels in the liver", "setting": "[3]; 50 μg BHA, P<0.05", "result": 9.59, "unit": "%"},
      {"measurement": "decrease of ROS levels in the serum", "setting": "[3]; 50 μg BHA, P<0.05", "result": 14.63, "unit": "%"},
      {"measurement": "improvement of liver SOD", "setting": "[3]; 50 μg BHA, P<0.05", "result": 13.69, "unit": "%"},
      {"measurement": "Liver CAT", "setting": "[3]; [4]", "result": "13.1 ± 1.4", "unit": "U/mg"},
      {"measurement": "Liver GSH-PX", "setting": "[3]; [4]", "result": "78.8 ± 8^ U/mg"},
      {"measurement": "Liver MDA", "setting": "[3]; [4]", "result": "3.4 ± 0.2", "unit": "nmol/mg"},
      {"measurement": "Liver ROS", "setting": "[3]; [4]", "result": "70.8 ± 3.7", "unit": "U/mg"},
      {"measurement": "Liver SOD", "setting": "[3]; [4]", "result": "56.8 ± 5.8", "unit": "U/mg"},
      {"measurement": "Serum CAT", "setting": "[3]; [4]", "result": "43.3 ± 4.6", "unit": "U/mL"},
      {"measurement": "Serum GSH-PX", "setting": "[3]; [4]", "result": "246.8 ± 10.2", "unit": "U/mL"},
      {"measurement": "Serum MDA", "setting": "[3]; [4]", "result": "10.4 ± 0.5", "unit": "nmol/mL"},
      {"measurement": "Serum ROS", "setting": "[3]; [4]", "result": "226.6 ± 17.9", "unit": "U/mL"},
      {"measurement": "Serum SOD", "setting": "[3]; [4]", "result": "166.6 ± 11.8", "unit": "U/mL"},
      {"measurement": "Liver CAT", "setting": "[3]; [5]", "result": "14.1 ± 1.5", "unit": "U/mg"},
      {"measurement": "Liver GSH-PX", "setting": "[3]; [5]", "result": "77.9 ± 7.3", "unit": "U/mg"},
      {"measurement": "Liver MDA", "setting": "[3]; [5]", "result": "3.5 ± 0.2", "unit": "nmol/mg"},
      {"measurement": "Liver ROS", "setting": "[3]; [5]", "result": "69.6 ± 7.1", "unit": "U/mg"},
      {"measurement": "Liver SOD", "setting": "[3]; [5]", "result": "57.2 ± 4.4", "unit": "U/mg"},
      {"measurement": "Serum CAT", "setting": "[3]; [5]", "result": "41.5 ± 6^ U/mL"},
      {"measurement": "Serum GSH-PX", "setting": "[3]; [5]", "result": "231.4 ± 13.3", "unit": "U/mL"},
      {"measurement": "Serum MDA", "setting": "[3]; [5]", "result": "10.5 ± 0.3", "unit": "nmol/mL"},
      {"measurement": "Serum ROS", "setting": "[3]; [5]", "result": "227.2 ± 17.9", "unit": "U/mL"},
      {"measurement": "Serum SOD", "setting": "[3]; [5]", "result": "161.2 ± 8", "unit": "U/mL"}
    ]}
  ]
}
